Experimental data as given in PubChem BioAssay (NCI).
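Here, GI50 denotes the concentration required for 50% inhibition of growth. TGI denotes the concentration required for complete inhibition of growth.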

Experiments:
Assay in all cases: inhibition of tumour cell growth, NCI panel, 384-well format
[1] = system: OVCAR-4 ovarian
[2] = system: NCI-H460 NSCLC
[3] = system: MDA-MB-468 breast
[4] = system: COLO 205 colon
[5] = system: NCI/ADR-RES ovarian
[6] = system: EKVX NSCLC
[7] = system: HOP-62 NSCLC
[8] = system: HT29 colon
[9] = system: OVCAR-5 ovarian
[10] = system: LOX IMVI melanoma
[11] = system: DU-145 prostate
[12] = system: SK-MEL-5 melanoma
[13] = system: HCC-2998 colon
[14] = system: T-47D breast
[15] = system: HOP-92 NSCLC
[16] = system: SR leukemia
[17] = system: SF-295 CNS
[18] = system: MDA-MB-435 melanoma
[19] = system: HL-60(TB) leukemia
[20] = system: SNB-19 CNS
[21] = system: TK-10 renal
[22] = system: MDA-MB-231 breast
[23] = system: KM12 colon
[24] = system: NCI-H322M lung
[25] = system: CAKI-1 renal
[26] = system: SF-539 CNS
[27] = system: SK-MEL-28 melanoma
[28] = system: UACC-257 melanoma
[29] = system: RPMI-8226 leukemia
[30] = system: OVCAR-8 ovarian
[31] = system: SF-268 CNS
[32] = system: MCF7 breast
[33] = system: SNB-75 CNS
[34] = system: HS 578T breast
[35] = system: A549 NSCLC
[36] = system: BT-549 breast
[37] = system: NCI-H522 lung
[38] = system: IGROV1 ovarian
[39] = system: A498 renal
[40] = system: U251 glioblastoma
[41] = system: SN12C renal
[42] = system: ACHN renal
[43] = system: PC-3 prostate
[44] = system: HCT-116 colon
[45] = system: SK-OV-3 ovarian
[46] = system: OVCAR-3 ovarian
[47] = system: MOLT-4 leukemia
[48] = system: NCI-H226 lung
[49] = system: HCT-15 colon

FC(F)c1nc2ccccc2n1-c1nc(N2CCOCC2)nc(N2CCOCC2)n1
GI50 [1]: 25.2 nM | TGI [1]: 1530 nM | GI50 [2]: 224 nM | TGI [2]: 2140 nM | GI50 [3]: 202 nM | TGI [3]: 2090 nM | GI50 [4]: 246 nM | TGI [4]: 1980 nM | GI50 [5]: 507 nM | TGI [5]: > 100000 nM | GI50 [6]: 169 nM | TGI [6]: 1550 nM | GI50 [7]: 420 nM | TGI [7]: 3960 nM | GI50 [8]: 454 nM | TGI [8]: > 100000 nM | GI50 [9]: 133 nM | TGI [9]: 759 nM | GI50 [10]: 598 nM | TGI [10]: 4150 nM | GI50 [11]: 352 nM | TGI [11]: 2390 nM | GI50 [12]: 191 nM | TGI [12]: 1290 nM | GI50 [13]: 23.1 nM | TGI [13]: 2120 nM | GI50 [14]: 171 nM | TGI [14]: 5380 nM | GI50 [15]: 303 nM | TGI [15]: > 100000 nM | GI50 [16]: 147 nM | TGI [16]: 896 nM | GI50 [17]: 250 nM | TGI [17]: 2370 nM | GI50 [18]: 918 nM | TGI [18]: 4750 nM | GI50 [19]: 138 nM | TGI [19]: 896 nM | GI50 [20]: 3370 nM | TGI [20]: > 100000 nM | GI50 [21]: 224 nM | TGI [21]: 1740 nM | GI50 [22]: 957 nM | TGI [22]: > 100000 nM | GI50 [23]: 1400 nM | TGI [23]: > 100000 nM | GI50 [24]: 281 nM | TGI [24]: 1980 nM | GI50 [25]: 216 nM | TGI [25]: > 100000 nM | GI50 [26]: 475 nM | TGI [26]: > 100000 nM | GI50 [27]: 402 nM | TGI [27]: > 100000 nM | GI50 [28]: 278 nM | TGI [28]: 4260 nM | GI50 [29]: 172 nM | TGI [29]: 608 nM | GI50 [30]: 641 nM | TGI [30]: > 100000 nM | GI50 [31]: 1540 nM | TGI [31]: > 100000 nM | GI50 [32]: 84.3 nM | TGI [32]: > 100000 nM | GI50 [33]: 154 nM | TGI [33]: 13900 nM | GI50 [34]: 202 nM | TGI [34]: 2140 nM | GI50 [35]: 645 nM | TGI [35]: > 100000 nM | GI50 [36]: 207 nM | TGI [36]: 1790 nM | GI50 [37]: 198 nM | TGI [37]: 894 nM | GI50 [38]: 44 nM | TGI [38]: 237 nM | GI50 [39]: 101 nM | TGI [39]: 351 nM | GI50 [40]: 1230 nM | TGI [40]: > 100000 nM | GI50 [41]: 19.8 nM | TGI [41]: 380 nM | GI50 [42]: 187 nM | TGI [42]: 1410 nM | GI50 [43]: 56 nM | TGI [43]: 825 nM | GI50 [44]: 1350 nM | TGI [44]: > 100000 nM | GI50 [45]: 282 nM | TGI [45]: 5000 nM | GI50 [46]: 174 nM | TGI [46]: 1080 nM | GI50 [47]: 166 nM | TGI [47]: 716 nM | GI50 [48]: 324 nM | TGI [48]: 3020 nM | GI50 [49]: 330 nM | TGI [49]: > 100000 nM
